Laboratory results taken from patent publication US8299065B2, “Antibacterial condensed thiazoles” (Biota Europe Ltd., priority 2007, dated 2012).
In brackets after ≈: the same amount, converted by molar mass.

Columns and labels:
[1] = system: Enterococcus faecalis ATCC 29212; test: MIC testing against Enterococcus faecalis ATCC 29212; assay type: cell-based; conditions: for MIC: ATCC29212, read-out: MICs against Enterococcus faecalis, Activity
Procedure: (§1) Minimum Inhibitory Concentration (MIC) Testing Compounds of this invention were tested for antimicrobial activity by susceptibility testing in liquid or on solid media. MICs for compounds against each strain were determined by the broth microdilution or agar dilution method according to the guidelines of the Clinical Laboratories and Standards Institute, formerly the National Committee for Clinical Laboratory Standards (Clinical Laboratories and Standards Institute. Methods for Dilution Antimicrobial Susceptibility Tests for Bacteria That Grow Aerobically; Approved Standard—Seventh Edition. Document M7-A7. CLSI, Wayne, Pa., 2006; Clinical Laboratories and Standards Institute. Methods for Antimicrobial Susceptibility Testing of Anaerobic Bacteria; Approved Standard—Sixth Edition. Document M11-A6. CLSI, Wayne, Pa., 2004).

[2] = system: Staphylococcus haemolyticus ATCC 29970; test: MIC testing, various bacteria; assay type: cell-based; conditions: ATCC29970
Procedure: (§2) Minimum Inhibitory Concentration (MIC) Testing
as §1, with “Compounds” for “Minimum Inhibitory Concentration (MIC) Testing Compounds”
(§3) Some of the Example compounds were also tested for activity against other bacterial species.

[3] = system: Enterococcus faecalis (VRE) ATCC 51299; test: MIC testing, various bacteria; assay type: cell-based
Procedure: as §2
as §1, with “Compounds” for “Minimum Inhibitory Concentration (MIC) Testing Compounds”
as §3

[4] = system: Staphylococcus epidermidis ATCC 12228; test: MIC testing, various bacteria; assay type: cell-based; conditions: ATCC12228
Procedure: as §2
as §1, with “Compounds” for “Minimum Inhibitory Concentration (MIC) Testing Compounds”
as §3

[5] = system: Staphylococcus aureus ATCC 29213; test: MIC testing, various bacteria; assay type: cell-based; conditions: ATCC29213
Procedure: as §2
as §1, with “Compounds” for “Minimum Inhibitory Concentration (MIC) Testing Compounds”
as §3

[6] = system: Streptococcus pyogenes ATCC 51339; test: MIC testing, various bacteria; assay type: cell-based; conditions: ATCC51339
Procedure: as §2
as §1, with “Compounds” for “Minimum Inhibitory Concentration (MIC) Testing Compounds”
as §3

[7] = system: Streptococcus agalactiae ATCC 13813; test: MIC testing, various bacteria; assay type: cell-based; conditions: ATCC13813
Procedure: as §2
as §1, with “Compounds” for “Minimum Inhibitory Concentration (MIC) Testing Compounds”
as §3

[8] = system: Moraxella catarrhalis ATCC 25240; test: MIC testing, various bacteria; assay type: cell-based; conditions: ATCC25240
Procedure: as §2
as §1, with “Compounds” for “Minimum Inhibitory Concentration (MIC) Testing Compounds”
as §3

[9] = system: Streptococcus mutans ATCC 35668; test: MIC testing, various bacteria; assay type: cell-based; conditions: ATCC35668
Procedure: as §2
as §1, with “Compounds” for “Minimum Inhibitory Concentration (MIC) Testing Compounds”
as §3

[10] = system: Enterococcus faecium (VRE) ATCC 700221; test: MIC testing, various bacteria; assay type: cell-based
Procedure: as §2
as §1, with “Compounds” for “Minimum Inhibitory Concentration (MIC) Testing Compounds”
as §3

[11] = system: Haemophilus influenzae ATCC 49247; test: MIC testing, various bacteria; assay type: cell-based; conditions: ATCC49247
Procedure: as §2
as §1, with “Compounds” for “Minimum Inhibitory Concentration (MIC) Testing Compounds”
as §3

[12] = system: Streptococcus pneumoniae ATCC 49619; test: MIC testing, various bacteria; assay type: cell-based; conditions: ATCC49619
Procedure: as §2
as §1, with “Compounds” for “Minimum Inhibitory Concentration (MIC) Testing Compounds”
as §3

[13] = system: Streptococcus pneumoniae clinical isolates; test: MIC testing, clinical isolates; assay type: cell-based; conditions: 10 clinical isolates
Procedure: as §1, with “2004). Some of the Example compounds were also tested for activity against clinical isolates of various bacterial species.” for “2004).”

[14] = system: Staphylococus aureus clinical isolates; test: MIC testing, clinical isolates; assay type: cell-based; conditions: 10 clinical isolates
Procedure: as §1, with “2004). Some of the Example compounds were also tested for activity against clinical isolates of various bacterial species.” for “2004).”

[15] = system: Enterococcus faecium clinical isolates; test: MIC testing, clinical isolates; assay type: cell-based; conditions: 10 clinical isolates
Procedure: as §1, with “2004). Some of the Example compounds were also tested for activity against clinical isolates of various bacterial species.” for “2004).”

[16] = system: Propionibacterium acnes clinical isolates; test: MIC testing, clinical isolates; assay type: cell-based; conditions: 5 clinical isolates
Procedure: as §1, with “2004). Some of the Example compounds were also tested for activity against clinical isolates of various bacterial species.” for “2004).”

[17] = system: Staphylococcus epidermidis clinical isolates; test: MIC testing, clinical isolates; assay type: cell-based; conditions: 10 clinical isolates
Procedure: as §1, with “2004). Some of the Example compounds were also tested for activity against clinical isolates of various bacterial species.” for “2004).”

[18] = system: Enterococcus faecalis clinical isolates; test: MIC testing, clinical isolates; assay type: cell-based; conditions: 10 clinical isolates
Procedure: as §1, with “2004). Some of the Example compounds were also tested for activity against clinical isolates of various bacterial species.” for “2004).”

[19] = system: Streptococcus pyogenes clinical isolates; test: MIC testing, clinical isolates; assay type: cell-based; conditions: 10 clinical isolates
Procedure: as §1, with “2004). Some of the Example compounds were also tested for activity against clinical isolates of various bacterial species.” for “2004).”

CCNC(=O)Nc1nc2cc(-c3cccnc3)c(F)cc2s1 [Example 4, 1-Ethyl-3-(6-fluoro-5-pyridin-3-yl-benzothiazol-2-yl)-urea]
MIC [1]: 0.25 to 1 µg/mL (≈ 0.79 to 3.16 µM)
melting point: 199.1 °C

CCNC(=O)Nc1nc2cc(-c3ccn(C)c(=O)c3)ccc2s1 [Example 3, 1-Ethyl-3-(5-(1-methyl-2-oxo-1,2-dihydro-pyridin-4-yl)-benzothiazol-2-yl)urea]
MIC [2]: 0.25 to 1 µg/mL (≈ 0.761 to 3.05 µM)
MIC [3]: 2 to 16 µg/mL (≈ 6.09 to 48.7 µM)
MIC [4]: 0.25 to 1 µg/mL (≈ 0.761 to 3.05 µM)
MIC [5]: 0.25 to 1 µg/mL (≈ 0.761 to 3.05 µM)
MIC [6]: 0.25 to 1 µg/mL (≈ 0.761 to 3.05 µM)
MIC [7]: 0.25 to 1 µg/mL (≈ 0.761 to 3.05 µM)
MIC [8]: 0.25 to 1 µg/mL (≈ 0.761 to 3.05 µM)
MIC [9]: 0.25 to 1 µg/mL (≈ 0.761 to 3.05 µM)
MIC [10]: 2 to 16 µg/mL (≈ 6.09 to 48.7 µM)
MIC [11]: 2 to 16 µg/mL (≈ 6.09 to 48.7 µM)
MIC [12]: < 0.25 µg/mL
MIC [1]: 0.25 to 1 µg/mL (≈ 0.761 to 3.05 µM)

CCNC(=O)Nc1nc2cc(-c3cc(C)n(Cc4cccnc4)c(=O)c3)c(F)cc2s1 [Example 49, 1-ethyl-3-(6-fluoro-5-(6-methyl-2-oxo-1-(pyridin-3-ylmethyl)-1,2-dihydropyridin-4-yl)benzo[d]thiazol-2-yl)urea]
MIC [1]: 0.25 to 1 µg/mL (≈ 0.571 to 2.29 µM)
MIC90 [13]: 0.015 µg/mL (≈ 0.0343 µM)
MIC range [13]: 0.008 to 0.03 µg/mL
MIC90 [14]: 0.06 µg/mL (≈ 0.137 µM)
MIC range [14]: 0.03 to 0.12 µg/mL
MIC90 [15]: 0.5 µg/mL (≈ 1.14 µM)
MIC range [15]: 0.25 to 0.5 µg/mL
MIC range [16]: 1 µg/mL (≈ 2.29 µM)
MIC90 ([16]; Cutibacterium acnes): 1 µg/mL (≈ 2.29 µM)
MIC90 [17]: 0.03 µg/mL (≈ 0.0686 µM)
MIC range [17]: 0.008 to 0.06 µg/mL
MIC90 [18]: 0.25 µg/mL (≈ 0.571 µM)
MIC range [18]: 0.06 to 0.5 µg/mL
MIC90 [19]: 0.25 µg/mL (≈ 0.571 µM)
MIC range [19]: 0.12 to 0.5 µg/mL

CCNC(=O)Nc1nc2cc(-c3cnc(OC)s3)ccc2s1 [Example 22, 1-ethyl-3-(5-(2-methoxythiazol-5-yl)benzo[d]thiazol-2-yl)urea]
MIC [1]: 2 to 16 µg/mL (≈ 5.98 to 47.8 µM)

tert-butyl 3-((4-(2-(3-ethylureido)-6-fluorobenzo[d]thiazol-5-yl)-5-yl)-2,2′-dioxo-2H-1,4′-bipyridin-1′(2′H)-yl)methyl)piperidine-1-carboxylate [Example 64]
MICs against Enterococcus faecalis, Activity [1]: B (MICs of 0.25-1 μg/ml)

CCNC(=O)Nc1nc2cc(-c3ccc(CO)nc3)ccc2s1 [Example 9, 1-ethyl-3-(5-(6-(hydroxymethyl)pyridin-3-yl)benzo[d]thiazol-2-yl)urea]
MIC [1]: 2 to 16 µg/mL (≈ 6.09 to 48.7 µM)

CCNC(=O)Nc1nc2cc(-c3ccc(=O)n(CC(=O)OCC)c3)ccc2s1 [Example 12, ethyl 2-(5-(2-(3-ethylureido)benzo[d]thiazol-5-yl)-2-oxopyridin-1(2H)-yl)acetate]
MIC [1]: 2 to 16 µg/mL (≈ 4.99 to 40 µM)

CCNC(=O)Nc1nc2cc(-c3cnc(CO)n3C)ccc2s1 [Example 11, 1-ethyl-3-(5-(2-(hydroxymethyl)-1-methyl-1H-imidazol-5-yl)benzo[d]thiazol-2-yl)urea]
MIC [1]: 2 to 16 µg/mL (≈ 6.03 to 48.3 µM)
